Assay results taken from patent US20070128217A1 (priority 2003, published 2007).

Experiments:
[1] = test system: control sera (pooled serum of ten healthy LUMC hospital workers; commercial negative donor pooled serum from the Dutch bloodbank); format: binding, human; parameters: Binding of Control serum LUMC to linear peptides / Binding of Control serum Blood-bank to linear peptides / Binding of Control serum LUMC to looped peptides / Binding of Control Serum Blood-Bank to Looped peptides / Binding of Control serum LUMC to linear peptides of the protein M of SARS-CoV Urbani / Binding of Control serum Blood-bank to linear peptides of the protein M of SARS-CoV Urbani / Binding of Control serum LUMC to looped peptides of the protein M of SARS-CoV Urbani / Binding of Control Serum Blood-Bank to Looped peptides of the protein M of SARS-CoV Urbani: unit not given here
[2] = test system: antibodies in sera from SARS patients (sera 1a, 1b, 2, 6, 37, 62, London, SARS-yellow, SARS-green); format: binding, human; parameters: Binding of serum 6 to linear peptides of protein X1 of SARS-CoV Urbani / Binding of serum 37 to linear peptides of protein X1 of SARS-CoV Urbani / Binding of serum 6 to looped/cyclic peptide (PEPSCAN-ELISA) / Binding of serum 37 to looped/cyclic peptide (PEPSCAN-ELISA) / Binding of serum 37 to looped/cyclic peptides of protein X1 of SARS-CoV Urbani / Binding of serum 6 to linear peptides of protein X2 / Binding of serum 37 to linear peptides of protein X2 / Binding of serum 37 to looped/cyclic peptides of protein X2 of SARS-CoV Urbani / Binding of serum 6 to linear peptides of protein M of SARS-CoV Urbani / Binding of serum 37 to linear peptides of protein M of SARS-CoV Urbani / Binding of serum 6 to looped/cyclic peptides of protein M of SARS-CoV Urbani / Binding of serum 37 to looped/cyclic peptides of protein M of SARS-CoV Urbani / Binding of serum 6 to linear peptides of protein X3 of SARS-CoV Urbani / Binding of serum 37 to linear peptides of protein X3 of SARS-CoV Urbani / Binding of serum 37 to looped/cyclic peptides of protein X3 of SARS-CoV Urbani / Binding of serum 6 to linear peptides of protein X4 of SARS-CoV Urbani / Binding of serum 37 to linear peptides of protein X4 of SARS-CoV Urbani / Binding of serum 37 to looped/cyclic peptides of protein X4 of SARS-CoV Urbani / Binding of serum 6 to linear peptides of protein X5 of SARS-CoV Urbani / Binding of serum 37 to linear peptides of protein X5 of SARS-CoV Urbani / Binding of serum 37 to looped/cyclic peptides of protein X5 of SARS-CoV Urbani / Binding of serum 6 to linear peptides of protein N of SARS-CoV Urbani / Binding of serum 37 to linear peptides of protein N of SARS-CoV Urbani / Binding of serum 6 to linear peptide (PEPSCAN-ELISA) / Binding of serum 1a to looped/cyclic peptides of protein N of SARS-CoV Urbani / Binding of serum 1b to looped/cyclic peptides of protein N of SARS-CoV Urbani / Binding of serum 2 to looped/cyclic peptides of protein N of SARS-CoV Urbani / Binding of serum 6 to looped/cyclic peptides of protein N of SARS-CoV Urbani / Binding of serum 37 to looped/cyclic peptides of protein N of SARS-CoV Urbani / Binding of serum 62 to looped/cyclic peptides of protein N of SARS-CoV Urbani / Binding of serum London to looped/cyclic peptides of protein N of SARS-CoV Urbani / Binding of serum SARS-green to looped/cyclic peptides of protein N of SARS-CoV Urbani: unit not given here
[3] = test system: recombinant human anti-SARS-CoV antibody 03-018; format: binding; parameters: Binding of antibody 03-018 to linear peptides of the N protein of SARS-CoV Urbani / Binding of antibody 03-018 to looped/cyclic peptides of the N protein of SARS-CoV Urbani: unit not given here
[4] = test system: rabbit serum obtained by immunizing a rabbit with the SARS-CoV strain Frankfurt 1; format: binding; parameters: Binding of a rabbit serum to linear peptides / Binding of a rabbit serum to looped peptides / Rabbit serum linear peptides / Rabbit serum looped peptides / Binding of a rabbit serum to linear peptides of protein N of SARS-CoV Urbani (Rabbit serum linear peptides) / Binding of a rabbit serum to looped/cyclic peptides of protein N of SARS-CoV Urbani (Rabbit serum looped peptides): unit not given here

Sequence	Binding of Control Serum Blood-Bank to Looped peptides [1]	Binding of Control serum Blood-bank to linear peptides [1]	Binding of Control serum LUMC to linear peptides [1]	Binding of Control serum LUMC to looped peptides [1]	Binding of serum 1a to linear peptide (PEPSCAN-ELISA) [2]	Binding of serum 1a to looped/cyclic peptides of protein N of SARS-CoV Urbani [2]	Binding of serum 1b to linear peptide (PEPSCAN-ELISA) [2]	Binding of serum 1b to looped/cyclic peptides of protein N of SARS-CoV Urbani [2]	Binding of serum 2 to linear peptide (PEPSCAN-ELISA) [2]	Binding of serum 2 to looped/cyclic peptides of protein N of SARS-CoV Urbani [2]	Binding of serum 6 to looped/cyclic peptides of protein N of SARS-CoV Urbani [2]	Binding of serum 37 to looped/cyclic peptides of protein N of SARS-CoV Urbani [2]	Binding of serum 62 to looped/cyclic peptides of protein N of SARS-CoV Urbani [2]	Binding of serum London to looped/cyclic peptides of protein N of SARS-CoV Urbani [2]	Binding of serum SARS-green to looped/cyclic peptides of protein N of SARS-CoV Urbani [2]	Binding of serum SARS-yellow to looped/cyclic peptides of protein N of SARS-CoV Urbani [2]	Binding of antibody 03-018 to linear peptides of the N protein of SARS-CoV Urbani [3]	Binding of antibody 03-018 to looped/cyclic peptides of the N protein of SARS-CoV Urbani [3]	Binding of a rabbit serum to linear peptides of protein N of SARS-CoV Urbani (Rabbit serum linear peptides) [4]	Binding of a rabbit serum to looped/cyclic peptides of protein N of SARS-CoV Urbani (Rabbit serum looped peptides) [4]	other results
AFGRRGPEQTQGNFG	0.4	0.6	0.5	0.3	0.2	0.3	0.1	0.1	0.2	0.3	0.1	0.3	0.3	0.3	0.1	0.1	0.1	0.2	0.1	0.0	Binding of serum 6 to linear peptide (PEPSCAN-ELISA) [2]: 0.3; Binding of serum 37 to linear peptide (PEPSCAN-ELISA) [2]: 0.5; Binding of serum 62 to linear peptide (PEPSCAN-ELISA) [2]: 0.7; Binding of serum London to linear peptide (PEPSCAN-ELISA) [2]: 0.8; Binding of serum SARS-green to linear peptide (PEPSCAN-ELISA) [2]: 0.4; Binding of serum SARS-yellow to linear peptide (PEPSCAN-ELISA) [2]: 0.6
DNVILLNKHIDAYKT						0.4		0.3		0.4	0.2	0.7	0.7	0.5	0.3	0.8	0.1	0.2	0.1	0.6	Control Serum Blood-Bank Looped peptides [1]: 0.7; Control serum Blood-bank linear peptides [1]: 0.5; Control serum LUMC linear peptides [1]: 0.6; Control serum LUMC looped peptides [1]: 0.7; Binding of serum 1a to linear peptides of protein N of SARS-CoV Urbani [2]: 0.2; Binding of serum 1b to linear peptides of protein N of SARS-CoV Urbani [2]: 0.1; Binding of serum 2 to linear peptides of protein N of SARS-CoV Urbani [2]: 0.2; Binding of serum 6 to linear peptides of protein N of SARS-CoV Urbani [2]: 0.1; Binding of serum 37 to linear peptides of protein N of SARS-CoV Urbani [2]: 0.6; Binding of serum 62 to linear peptides of protein N of SARS-CoV Urbani [2]: 0.6; Binding of serum London to linear peptides of protein N of SARS-CoV Urbani [2]: 0.5; Binding of serum SARS-green to linear peptides of protein N of SARS-CoV Urbani [2]: 0.2; Binding of serum SARS-yellow to linear peptides of protein N of SARS-CoV Urbani [2]: 0.6
KGQQQQGQTVTKKSA	0.4	1.0	0.9	0.4	0.3	0.2	0.1	0.1	0.2	0.2	0.1	0.4	0.3	0.3	0.0	0.1	0.1	0.2	0.2	0.0	Binding of serum 6 to linear peptide (PEPSCAN-ELISA) [2]: 0.3; Binding of serum 37 to linear peptide (PEPSCAN-ELISA) [2]: 0.7; Binding of serum 62 to linear peptide (PEPSCAN-ELISA) [2]: 0.8; Binding of serum London to linear peptide (PEPSCAN-ELISA) [2]: 0.6; Binding of serum SARS-green to linear peptide (PEPSCAN-ELISA) [2]: 0.4; Binding of serum SARS-yellow to linear peptide (PEPSCAN-ELISA) [2]: 0.6
WPQIAQFAPSASAFF						0.5		0.3		0.5	0.3	0.8	0.9	0.5	0.5	0.6	0.1	0.3	0.1	0.6	Control Serum Blood-Bank Looped peptides [1]: 0.8; Control serum Blood-bank linear peptides [1]: 0.6; Control serum LUMC linear peptides [1]: 0.6; Control serum LUMC looped peptides [1]: 0.9; Binding of serum 1a to linear peptides of protein N of SARS-CoV Urbani [2]: 0.2; Binding of serum 1b to linear peptides of protein N of SARS-CoV Urbani [2]: 0.1; Binding of serum 2 to linear peptides of protein N of SARS-CoV Urbani [2]: 0.1; Binding of serum 6 to linear peptides of protein N of SARS-CoV Urbani [2]: 0.2; Binding of serum 37 to linear peptides of protein N of SARS-CoV Urbani [2]: 0.6; Binding of serum 62 to linear peptides of protein N of SARS-CoV Urbani [2]: 0.5; Binding of serum London to linear peptides of protein N of SARS-CoV Urbani [2]: 0.5; Binding of serum SARS-green to linear peptides of protein N of SARS-CoV Urbani [2]: 0.3; Binding of serum SARS-yellow to linear peptides of protein N of SARS-CoV Urbani [2]: 0.7
